Where two headings read alike, the source gives them in different places.
Columns and labels:
[1] = tested on: vancomycin-resistant E. faecium; assay: Mouse model of GI colonization by VRE; format: in vivo, C57BL/6 mice
From the text: Feasibility in vivo study: AZM reduces VRE load in the intestines and faeces. The promising feature, and the specific and potent antimicrobial activity of CAIs, prompted us to evaluate the in vivo efficacy of AZM in our established mouse model of GI colonization by enterococci with features that mimic the antibiotic-induced enterococcal expansion observed in humans (Mohammad, H. et al., Int J Antimicrob Agents 2018, 51, 897-904; Abdelkhalek, A, et al., PLoS One 2018, 13, e0199710). We tested AZM (two clinical doses 10 and 20 mg/kg) in female 12-week-old C57BL/6 mice (n=5 mice per group) that were sensitized with ampicillin ([…] in drinking water) for 7 days to reduce the microbiota present in the gastrointestinal tract and colonized with 10^8 CFU/mL of vancomycin-resistant E. faecium.
We thought that the rapid absorption of AZM from the gastrointestinal tract would limit their exposure time to VRE present in the gastrointestinal tract.
Mice were treated for 8 days with 10 mg/kg of drugs by oral gavage.

[2] = tested on: Enterococcus faecium Patient #2-1-NR-31909; assay: MIC of CAIs in BHIB and TSB; format: cell-based; conditions: Enterococcus faecium, read-out: MIC
Protocol: (§1) The minimum inhibitory concentrations (MICs) of CAIs were tested against clinical isolates of vancomycin sensitive and vancomycin resistant Enterococci strains as per the guidelines provided by the Clinical and Laboratory Standards Institute (CLSI). The selected strains of Enterococci were streaked on Tryptic Soy Agar (TSA) plates and let grow for 24 hours at 37° C. Afterwards, a bacterial solution equivalent to 0.5 McFarland standard was prepared and diluted in tryptone soy broth (TSB) or brain heart infusion broth (BHIB) to achieve a bacterial concentration of about 5×10^5 CFU/mL and seeded in 96-well well plates. Compounds and control drugs were added in the first row of the 96-well plates and serially diluted along the plates. Plates were then incubated aerobically at 37° C. for 18-20 hours. MICs reported in Table 5 are the minimum concentration of the compounds/control drugs that could inhibit completely the visual growth of the bacteria.

[3] = tested on: Enterococcus fecalis Strain SF 24397 NR31970; assay: MIC of CAIs in BHIB and TSB; format: cell-based; conditions: Enterococcus, read-out: MIC
Protocol: as §1

[4] = tested on: Enterococcus faecium E417-HM-965; assay: MIC of CAIs in BHIB and TSB; format: cell-based; conditions: Enterococcus faecium, read-out: MIC
Protocol: as §1

[5] = tested on: Enterococcus faecalis—S613 HM-334; assay: MIC of CAIs in BHIB and TSB; format: cell-based; conditions: Enterococcus, read-out: MIC
Protocol: as §1, with “bacteria. The MIC values of CAIs against the tested VRE strains were higher in BHIB than in TSB. This may be due to binding of these drugs to proteins. […] They inhibited the VRE strains at MIC values ranging from 1 to 4 μg/mL.” for “bacteria.”

[6] = cited from earlier work
E. faecium NR 31909 = conditions: oral 20 mg/kg daily for 4 days
From the text: Saline was used as a negative control. Mice were euthanized on day 5 and organs (liver, spleen and kidneys) were aseptically removed and homogenized, and viable VRE were enumerated by serial dilution and plating.

[7] = cited from earlier work; remark: listed apart in the source

CC(=O)Nc1nnc(S(N)(=O)=O)s1 [Acetazolamide, reference compound]
VRE decolonization compared with linezolid ([1]; AZM 10 and 20 mg/kg, linezolid 10 mg/kg once daily for 8 days): outperformed linezolid
VRE in feces, cecal content and ileal content compared to control mice ([1]; once a day at 10 mg/kg or 20 mg/kg, feces as early as 3rd day): significant reduction
MIC ([2]; BHIB): 64 µg/mL
MIC ([2]; TSB, Table 5): 2 µg/mL
MIC ([3]; BHIB): > 128 µg/mL
MIC ([3]; TSB, Table 5): 2 µg/mL
MIC ([4]; E417HM965, BHIB): 8 µg/mL
MIC ([4]; E417HM965, TSB, Table 5): 2 µg/mL
MIC ([5]; BHIIB): > 128 µg/mL
MIC ([5]; TSB, Table 5): 2 µg/mL
time to peak plasma concentrations ([6]; after oral administration): 1 to 3 h
serum concentration ([6]; after single oral dose): 20 to 100 µg/mL
mice protected against a lethal dose (survival) (E. faecium NR 31909; from two hours after challenge): 100%
reduction of bacterial load in internal organs (E. faecium NR 31909; liver, spleen, kidneys on day 5): superior to linezolid
oral LD50 (mouse) [7]: 4300 mg/kg

CC(=O)NC[C@H]1CN(c2ccc(N3CCOCC3)c(F)c2)C(=O)O1 [Linezolid, reference compound]
MIC ([3]; TSB, Table 5): 1 µg/mL
MIC ([5]; BHIIB): 1 µg/mL
MIC ([5]; TSB, Table 5): 1 µg/mL

Reference: patent US12378211B2, “Carbonic anhydrase inhibitors and antibiotics against multidrug resistant bacteria” (Purdue Research Foundation, priority 2018, dated 2025)
